According to publication PMC4569415, “Pro-Oxidant Activity of Amine-Pyridine-Based Iron Complexes Efficiently Kills Cancer and Cancer Stem-Like Cells” (PLoS ONE, 2015):

Legend:
JURKAT cells = assay: ROS measurement with H2DCFDA; format: cell-based, human; conditions: 10 μmol/L, 24 h
Experimental: (§1) Cellular ROS content was determined using the 2′,7′-dichlorodihydrofluorescein diacetate probe (H2DCFDA). Cells were seeded in 24-well plates (50 000 cells/well) in phenol red-free DMEM 24 h prior to treatments. Cells were treated with different concentrations of compound 1, 2 and 5 (2.5, 5 or 10 μmol/L) or vehicle alone as a control, for 5 or 24 hours at 37°C. In some experiments, cells were co-treated with the compounds plus 5 mmol/L NAC. After treatments, cells were washed with PBS and incubated with 1 μmol/L H2DCF-DA in PBS for 30 minutes in the dark. After washing, cells were collected with trypsin and analyzed by flow cytometry using a FACS-Calibur flow cytometer (Becton-Dickinson®, Immunofluorometry Systems, Mountain View, CA, USA). The geometric mean fluorescence intensity of 10 000 cells was established using CellQuestTM software (Becton Dickinson). The fluorescence fold-increase versus untreated cells was determined for each treatment.

MCF-7 cells = assay: ROS measurement with H2DCFDA; format: cell-based, human; conditions: MCF-7, 10 μmol/L, 24 h
Experimental: as §1

## CN(C)c1ccnc(CN2CCC[C@H]2[C@@H]2CCCN2Cc2cc(N(C)C)ccn2)c1 [Compound 2]
JURKAT cells
  ROS levels versus control cells: 1.94 folds
MCF-7 cells
  increase in ROS levels: 7 fold
